Data on 4 molecules can be found in patent publication US11504371B2, “Quinazolines compound, preparation method therefor and application thereof” (Beijing Normal University, priority 2017, dated 2022).

Each structure is given as a SMILES string. “Also recorded” adds a separate entry of the source. Read-outs that look alike come from different tables or passages of the source.

Series [1] relates to human hepatoma cell line (HepG2). Put plainly: MTT assay, tumor cell proliferation inhibition, HepG2. The series is classed as cell-based. The conditions noted are these: 72 h, read-out: Tumor inhibition rate (IC50). On the procedure: (§1) Cell lines to be tested: human hepatoma cell line (HepG2), human lung cancer cell line (A549), human prostate cancer cell line (DU145), human breast cancer cell line (MCF-7), human neuroblastoma cell line (SH-SY5Y), human gastric mucosal cell line (Ges-1) and human embryonic lung fibroblast cell line (CCC-HPF-1) (the cells to be tested were purchased from the Cancer Hospital of Chinese Academy of Medical Sciences).
(§2) The cells in logarithmic growth phase were treated to prepare a single cell suspension, with the cell density adjusted, which was seeded in a 96-well cell culture plate. About 2×10^3 cells were contained in 100 μL per well, and cultured in a cell incubator at 37° C., 5% CO2, and saturated humidity for 24 h. The used medium was aspirated and abandoned, and then 100 μL of the target compound in different concentrations (0.1 μM-100 μM) were added for drug treatment. Five duplicate wells were prepared for each concentration. The background blank well, negative control well and positive control well were also prepared. All the wells were placed in a cell culture incubator at 37° C., 5% CO2, saturated humidity for another 72 h. Then, each well was added with 10 μL of MTT solution (5 mg/mL) and incubated for another 4 h. After that, each well was added with 100 μL of 10% SDS-0.1% NH4Cl (10% SDS purchased from Beijing Mengyimei Biotechnology Co., Ltd.) solution, and incubated at 37° C. for 10 h in the dark. Then, the absorbance OD was measured at 570 nm using a microplate reader at a reference wavelength of 650 nm. Cell proliferation inhibition was calculated according to the following formula: % inhibition=(ODcontrol−ODtreat)(ODcontrol−ODblank)×100. […] Each group was performed at least three times in parallel.

For series [2], the system named is human lung cancer cell line (A549). Put plainly: MTT assay, tumor cell proliferation inhibition, A549. The class given is cell-based. The settings on record: A549, MTT, 72 h, read-out: Tumor inhibition rate (IC50). On the procedure: as §1, §2
Series [3] relates to human prostate cancer cell line (DU145). Put plainly: MTT assay, tumor cell proliferation inhibition, DU145. The series is classed as cell-based. The settings on record: DU145, MTT, 72 h, read-out: Tumor inhibition rate (IC50). On the procedure:
as §1, §2

The subject of series [4] is human neuroblastoma cell line (SH-SY5Y). Put plainly: MTT assay, tumor cell proliferation inhibition, SH-SY5Y. The series is classed as cell-based. The conditions noted are these: SH-SY5Y, 72 h, read-out: Tumor inhibition rate (IC50). On the procedure: as §1, §2
Series [5] relates to human breast cancer cell line (MCF-7). Put plainly: MTT assay, tumor cell proliferation inhibition, MCF-7. The class given is cell-based. The settings on record: MCF-7, MTT, 72 h, read-out: Tumor inhibition rate (IC50). On the procedure: as §1, §2
In series [6] the test system is tumor cell strains HepG2, A549, MCF-7, DU145 and SH-SY5Y. Put plainly: MTT assay, summary over the five tumor cell lines. The series is classed as cell-based, human. The settings on record: HepG2, A549, MCF-7, DU145, SH-SY5Y. As for the experimental part:
as §1
The cells in logarithmic growth phase were treated to prepare a single cell suspension, with the cell density adjusted, which was seeded in a 96-well cell culture plate. About 2×10^3 cells were contained in 100 μL per well, and cultured in a cell incubator at 37° C., 5% CO2, and saturated humidity for 24 h. The used medium was aspirated and abandoned, and then 100 μL of the target compound in different concentrations (0.1 μM-100 μM) were added for drug treatment. Five duplicate wells were prepared for each concentration. The background blank well, negative control well and positive control well were also prepared. All the wells were placed in a cell culture incubator at 37° C., 5% CO2, saturated humidity for another 72 h. Then, each well was added with 10 μL of MTT solution (5 mg/mL) and incubated for another 4 h. After that, each well was added with 100 μL of 10% SDS-0.1% NH4Cl (10% SDS purchased from Beijing Mengyimei Biotechnology Co., Ltd.) solution, and incubated at 37° C. for 10 h in the dark. Then, the absorbance OD was measured at 570 nm using a microplate reader at a reference wavelength of 650 nm. Cell proliferation inhibition was calculated according to the following formula: % inhibition=(ODcontrol−ODtreat)(ODcontrol−ODblank)×100. IC50 value, i.e., 50% proliferation inhibition concentration, was calculated by SPSS 16.0 software. Each group was performed at least three times in parallel.
The inhibitory activities of 35 target compounds against tumor cell strains HepG2, A549, MCF-7, DU145 and SH-SY5Y were tested by MTT assay (Table 1). Some compounds with optimal antitumor activity were selected.

In the next series the test system is HepG2 cancer cells. Put plainly: Nude mice bearing HepG2 cancer cells.

Description for HepG2 cancer cells: Firstly, a tumor-bearing nude mouse model was established. […] Then, grouping and administration were performed; the nude mice (5 mice in each group) were randomly divided into several groups, such as ultra-pure water control group (blank), positive drug control group, and different dosage treatment groups. The nude mice in each group were administered continuously for 40 days. The nude mice were weighted every other day during the administration. Tumor volumes were measured and calculated.

In the case of `c1ccc(COc2ccc(Nc3ncnc4cc5c(cc34)OCCOCCOCCOCCO5)cc2)cc1` [Compound 29, N-(4-((phenyl)methoxy)phenyl)-6,7-(benzo-15-crown-5)-4-quinazolinamine], the IC50 in series [1] was found to be 11.9 µM; in series [2] it was 29.5 µM; in series [3] it was 8.8 µM; in series [4] it was 5.25 µM; in series [5], 12 µM. Moreover, the “inhibitory effect on proliferation of the five tumor cells (in words)” value (shortened to “inhibitory effect on proliferation”) in series [6] was “good inhibitory effect on proliferation of at least three of the five tumor cells”.

On to `O=[N+]([O-])c1ccc(COc2cccc(Nc3ncnc4cc5c(cc34)OCCOCCOCCOCCO5)c2)cc1` [Compound 31, N-(3-((4-nitrophenyl)methoxy)phenyl)-6,7-(benzo-15-crown-5)-4-quinazolinamine], for which the melting point was in the range of 136 to 137 °C. Further, the IC50 in series [1] (Homo sapiens) amounted to 9.82 µM. Moreover, in series [2] (Homo sapiens), the IC50 stood at 19.8 µM. Moreover, the IC50 in series [3] (Homo sapiens, DU-145) was found to be 13.8 µM. Besides, the IC50 in series [4] (Homo sapiens) was determined as 8.42 µM. Further, the IC50 in series [5] (Homo sapiens, MCF7) worked out at 6.41 µM. Also, the “inhibitory effect on proliferation” value in series [6] is recorded as “good inhibitory effect on proliferation of at least three of the five tumor cells”.

As for `FC(F)(F)c1ccc(COc2cccc(Nc3ncnc4cc5c(cc34)OCCOCCOCCOCCO5)c2)cc1` [Compound 34, N-(3-((4-trifluoromethylphenyl)methoxy)phenyl)-6,7-(benzo-15-crown-5)-4-quinazolinamine], the IC50 in series [1] came to 5.7 µM; in series [2], 8.52 µM; in series [3] it was 26.9 µM; in series [4], 8.56 µM; in series [5] it was 8.48 µM. Also, the “inhibitory effect on proliferation” value in series [6] was “good inhibitory effect on proliferation of at least three of the five tumor cells”.

The molecule `FC(F)(F)c1ccc(COc2ccc(Nc3ncnc4cc5c(cc34)OCCOCCOCCOCCO5)cc2)cc1` [Compound 35, N-(4-((4-trifluoromethylphenyl)methoxy)phenyl)-6,7-(benzo-15-crown-5)-4-quinazolinamine] showed a melting point of 197 to 198 °C. For the same molecule, in series [1] (Homo sapiens), the IC50 was determined as 3.34 µM. Also, in series [2] (Homo sapiens), the IC50 was found to be 8.56 µM. Further, the “body weight of the mice (FIG. 6)” value in the series with HepG2 cancer cells (20 mg/Kg, single agent) is given as “significantly increased”. In the series on HepG2 cancer cells (40 mg/Kg, single agent), the “weight loss of nude mice (FIG. 6)” value is recorded as “weight loss of nude mice is similar”. Moreover, the “tumor growth (tumor volume, FIG. 5)” value with HepG2 cancer cells (nude mice bearing HepG2, single agent) is on record as “can slow down the tumor growth with increasing drug dose”. In addition, the IC50 in series [3] (Homo sapiens, DU-145) was 8.8 µM. Further, in series [4] (Homo sapiens), the IC50 is 2.14 µM. Besides, the IC50 in series [5] (Homo sapiens, MCF7) was 10 µM. The “inhibitory effect on proliferation” value in series [6] is given as “good inhibitory effect on proliferation of at least three of the five tumor cells; also recorded: high anticancer activity on all the five tumor cells”.
